Measurements taken from publication PMC6479711, “Chemical Constituents of Anacardium occidentale as Inhibitors of Trypanosoma cruzi Sirtuins” (Molecules, 2019).
Where two headings read alike, the source gives them in different places.

How the values were obtained:
[1] = tested on: Trypomastigote forms of T. cruzi (Y strain); experiment: Activity against trypomastigotes (viable parasite count); format: cell-based, Trypanosoma cruzi; conditions: for EC50: read-out: Trypomastigote EC50 ± SEM
Description: All experiments were performed with the Y strain of T. cruzi. Trypomastigote forms of T. cruzi were obtained from the supernatant of infected LLC-MK2 cells and maintained in DMEM supplemented with 10% FBS and Penicillin-Streptomycin (100 U/mL) (all from Gibco/Life Technologies) at 37 °C with 5% CO2.
Trypomastigotes were incubated in 96-well plates (2 × 10^6 cells/mL) in DMEM, in the presence or absence of the compounds at different concentrations for 24 h. […] Each compound concentration was tested in triplicate, and three independent experiments were performed. The reference drug, benznidazole, was used as the positive control.

[2] = tested on: intracellular amastigotes of T. cruzi in infected hFIB; experiment: In vitro T. cruzi infection assay (intracellular amastigotes in hFIB, high content imaging); format: cell-based, Trypanosoma cruzi; conditions: read-out: Amastigote EC50 ± SEM
Description: All experiments were performed with the Y strain of T. cruzi. […] The culture was washed with saline solution and infected with trypomastigotes (10 parasites:1 host cell). Following 24 h of incubation, the non-internalized parasites were removed by washing with saline solution, and fresh medium, with or without compounds at different concentrations, was added to the culture before the incubations proceeded for 72 h. Cells were then fixed and stained by the addition of 50 μL of a solution containing 4% paraformaldehyde and 4 μM Draq5 DNA dye (BioStatus, Shepshed, UK) per well. Plates were imaged in an Operetta High Content Imaging System (PerkinElmer, Waltham, MA, USA) confocal microscope using a 10X air objective. Nine images were collected from each well for reliable statistical analysis. The percentage of intracellular parasites was determined and compared to the negative control, and compound antiparasitic activity was also expressed as EC50. The reference drug, benznidazole, was used as the positive control at 50 µM. Each drug concentration was carried out in triplicate.

[3] = tested on: Human primary skin fibroblasts (hFIB); experiment: Host cell toxicity (AlamarBlue); format: cell-based; conditions: for hFIB CC50 ± SEM: hFIB viability 72 h after treatment
Description: (§1) Human primary skin fibroblasts (hFIB) were obtained from patient skin biopsy and cultured in Dulbecco’s Modified Eagle Medium (DMEM) supplemented with 10% fetal bovine serum (FBS) and Penicillin-Streptomycin (0.2 U/mL) (all from Gibco/Life Technologies, Grand Island, NY, USA). The cells were seeded on 96-well plates at 3 × 10^4 cells/mL and treated with the drugs for 72 h of incubation time. Following the treatments, cells were washed with saline solution twice, and cell viability was determined by the AlamarBlue assay (Thermo Fisher Scientific, Carlsbad, CA, USA), according to the manufacturer’s instructions. Colorimetric readings were performed after 24 h at 570 and 600 nm. Fifty-percent cytotoxic concentration (CC50) values were calculated using data points gathered from three independent experiments.

[4] = Host cell toxicity (AlamarBlue); format: cell-based, human; conditions: human, hFIB viability 72 h after treatment, read-out: hFIB CC50 ± SEM
Description: as §1

[5] = tested on: amastigote forms of T. cruzi in infected hFIB; experiment: In vitro drug combination of compound 2 and benznidazole in infected hFIB (Chou-Talalay CI); format: cell-based; conditions: Trypanosoma cruzi, 72 h, read-out: EC50 ± SD, alone
Description: The culture was washed with saline solution and infected with trypomastigotes (10 parasites:1 host cell). Following 24 h of incubation, the non-internalized parasites were removed by washing with saline solution, and fresh medium, with or without compounds at different concentrations, was added to the culture before the incubations proceeded for 72 h. Cells were then fixed and stained by the addition of 50 μL of a solution containing 4% paraformaldehyde and 4 μM Draq5 DNA dye (BioStatus, Shepshed, UK) per well. Plates were imaged in an Operetta High Content Imaging System (PerkinElmer, Waltham, MA, USA) confocal microscope using a 10X air objective. Nine images were collected from each well for reliable statistical analysis. The percentage of intracellular parasites was determined and compared to the negative control, and compound antiparasitic activity was also expressed as EC50. The reference drug, benznidazole, was used as the positive control at 50 µM. Each drug concentration was carried out in triplicate.

TcSir2rp1 = TcSir2rp1 (Trypanosoma cruzi, UniProt Q4DVL9); experiment: TcSir2rp1 deacetylase activity assay (fluorogenic peptide, NAD+); format: biochemical; conditions: recombinant enzyme; 30 min pre-incubation; sirtuin activity determined 4 h after incubation; read-out: TcSir2rp1 EC50 ± SEM
Chain of TcSir2rp1 (Q4DVL9 entry or part of it): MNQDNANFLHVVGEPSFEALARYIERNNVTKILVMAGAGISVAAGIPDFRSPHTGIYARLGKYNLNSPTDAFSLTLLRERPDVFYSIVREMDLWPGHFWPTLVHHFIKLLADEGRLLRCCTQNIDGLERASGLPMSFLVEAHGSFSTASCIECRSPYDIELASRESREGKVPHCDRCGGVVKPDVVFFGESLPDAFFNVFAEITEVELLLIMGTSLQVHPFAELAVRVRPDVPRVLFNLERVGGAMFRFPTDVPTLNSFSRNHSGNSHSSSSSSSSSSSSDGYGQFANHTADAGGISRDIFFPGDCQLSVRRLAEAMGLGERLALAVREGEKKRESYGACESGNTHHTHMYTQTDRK
Description: Deacetylase assays were performed from the protocol established previously by [8]. In summary, the reaction was performed in two steps. In the first step, a synthetic peptide as the substrate (Abz-Gly-Pro-acetyl-Lys-Ser-Gln-EDDnp, where Abz is ortho-aminobenzoic acid and EDDnp is N-[2,4-dinitrophenyl]ethylenediamine) was dissolved in 50 µL of 25 mM Tris-HCl (pH 8.0), 137 mM NaCl, 2.7 mM KCl, and 1 mM MgCl2 containing 0.6 mM NAD^+ (Sigma-Aldrich). TcSir2rp1 or TcSir2rp3 were added and the reactions performed for 4 h at 30 °C. In the inhibition experiments, the enzyme was pre-treated for 30 min at room temperature with the indicated compounds and the addition of the substrate started the reaction. In the second step, the reactions were stopped with 50 µL of a solution containing 12 mM nicotinamide in 100 mM NaCl and 50 mM Tris-HCl (pH 8.0), in the absence or presence of 0.6 mg/mL trypsin (Sigma-Aldrich). After further incubation for 15 min, the fluorescence at 420 nm was read (excitation, 320 nm) in a SpectraMax M3 plate reader (Molecular Devices, Sunnyvale, CA, USA).

TcSir2rp3 = TcSir2rp3 (Trypanosoma cruzi, UniProt Q4E5B9, K2R); experiment: TcSir2rp3 deacetylase activity assay (fluorogenic peptide, NAD+); format: biochemical
Chain of TcSir2rp3 (Q4E5B9 whole entry K2R): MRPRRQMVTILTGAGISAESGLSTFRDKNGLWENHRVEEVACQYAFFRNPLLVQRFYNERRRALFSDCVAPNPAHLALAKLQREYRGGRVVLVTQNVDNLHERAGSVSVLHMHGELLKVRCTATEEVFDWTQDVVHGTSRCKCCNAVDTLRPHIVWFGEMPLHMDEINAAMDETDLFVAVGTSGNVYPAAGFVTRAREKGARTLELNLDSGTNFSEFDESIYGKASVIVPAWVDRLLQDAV
Description: Recombinant TcSir2rp3 was obtained as described previously by. The TcSir2rp3 gene was amplified from the genomic DNA of the T. cruzi Y strain using the oligonucleotides TcSir2rp3_BamHI_F_5′-[…] AGG-3′ and TcSir2rp3_XhoI_R_5′-[…]-3′ and cloned into pET28a (Novagen, Itapira, Brazil). The recombinant vector was used to transform ArcticExpress DE3 bacteria (Agilent Technologies) and protein was expressed by induction with 0.1 mM IPTG at 12 °C.
Deacetylase assays were performed from the protocol established previously by. In summary, the reaction was performed in two steps. In the first step, a synthetic peptide as the substrate (Abz-Gly-Pro-acetyl-Lys-Ser-Gln-EDDnp, where Abz is ortho-aminobenzoic acid and EDDnp is N-[2,4-dinitrophenyl]ethylenediamine) was dissolved in 50 µL of 25 mM Tris-HCl (pH 8.0), 137 mM NaCl, 2.7 mM KCl, and 1 mM MgCl2 containing 0.6 mM NAD^+ (Sigma-Aldrich). TcSir2rp1 or TcSir2rp3 were added and the reactions performed for 4 h at 30 °C. In the inhibition experiments, the enzyme was pre-treated for 30 min at room temperature with the indicated compounds and the addition of the substrate started the reaction. […] After further incubation for 15 min, the fluorescence at 420 nm was read (excitation, 320 nm) in a SpectraMax M3 plate reader (Molecular Devices, Sunnyvale, CA, USA).

[6] = Y strain, 24 h after incubation with compounds
[7] = infected hFIB, 72 h after treatment
[8] = human primary skin fibroblasts (hFIB)
[9] = Trypanosoma cruzi, 72 h, infected hFIB, 72 h after treatment

Row | Compound | EC50 [2, 7] [µM] | CC50 at 72 h [4, 8] [µM] | SI (selectivity index), ratio of CC50 (hFIB) to EC50 (amastigote) [3] | EC50 [2, 9] [µM] | EC50 (TcSir2rp1) [µM] | EC50 (TcSir2rp3) [µM] | Trypomastigote EC50 ± SEM [1, 6] | hFIB CC50 ± SEM [3] | also measured
1 | 3-(8Z)-8-Pentadecen-1-ylphenol [Compound 4] | 15.3 ± 2 | – | – | – | – | – | – | – | EC50 [1, 6]: 43.5 ± 2.32 µM; CC50 [3]: 45.47 ± 0.27 µM
2 | O=C(Cn1ccnc1[N+](=O)[O-])NCc1ccccc1 [Benznidazole, reference compound] | – | > 100 | >32 | – | – | – | – | – | EC50 ([1]; Trypanosoma cruzi, Y strain, 24 h after incubation with compounds): 11.4 ± 1.09 µM; EC50 ([2]; Trypanosoma cruzi, 72 h): 3.13 ± 0.87 µM; EC50 [5]: 2.17 ± 0.09 µM
3 | C=CC/C=C\C/C=C\CCCCCCCc1cc(O)cc(O)c1 [Compound 1, 5-(8Z,11Z)-8,11,14-Pentadecatrien-1-yl-1,3-benzenediol] | – | – | 4 | 11.8 ± 0.4 | – | – | – | – | EC50 ([1]; Trypanosoma cruzi, 24 h): 23.36 ± 0.12 µM; CC50 at 72 h [4]: 47.17 ± 0.1 µM
4 | CCC/C=C\C/C=C\CCCCCCCc1cccc(O)c1C(=O)O [Compound 5, 2-Hydroxy-6-(8Z,11Z)-8,11-pentadecadien-1-ylbenzoic acid] | 41.7 ± 5.53 | > 100 | – | ~40 | 23.3 ± 2.51 | 6.08 ± 1.16 | no effect | not toxic | –
5 | CCCCCC/C=C\CCCCCCCc1cccc(O)c1C(=O)O [Compound 6, 2-Hydroxy-6-(8Z)-8-pentadecenylbenzoic acid] | 42.4 ± 5.11 | > 100 | – | ~40 | 16.2 ± 4.88 | 7.41 ± 0.65 | no effect | not toxic | –
